Several values for one entry are separate records, joined by “and”; a condition that tells them apart may be missing. Equal values may be shown once. Where a SMILES comes first, the peptide text is derived from it.
What was measured:
HaCat cell line = test: In vitro HaCat cytotoxicity (MTT); type: cell-based, human; conditions: 21 h exposure, OD570, relative to untreated control
Procedure: The HaCat cell line (Cellonex, South Africa) was cultured in Dulbecco’s Modified Eagle Medium (DMEM) supplemented with 10% heat-inactivated fetal calf serum (FCS) and 1% antibiotic-antimycotic (Abs) and maintained at 5–10% CO2, 37 °C, 95% humidity. For cytotoxicity screening, 5.56 × 10^4 cells/mL were plated in a 96-well plate. After 24 h incubation, the cells are initially exposed to each peptide at a concentration of 256 μg/mL or 0.1% Triton-X-100 as the control for 21 h. If cytotoxicity was observed, at a level of significance of p < 0.0001 compared with the untreated control after 21 h, a dose-response assay was undertaken. Cell viability was determined by adding 10% 3-(4,5-dimethyl-2-thiazolyl)-2,5-diphenyl-2H-tetrazolium bromide (MTT) (1 mg/mL), to each well and after a further 3 h incubation the media was discarded, and the formazan crystals dissolved by adding 25% DMSO in ethanol. The absorbance was measured at OD570 by using the FLUOstar Omega multidetection microplate reader (BMG Labtech). Percentage cell viability was calculated relative to the untreated control. The LC50 was defined as the concentration of AMP treatment that results in 50% lethality of HaCat cells and was determined from the dose-response curves.

[1] = system: S. aureus (MSSA) ATCC 9144; test: microbe, parasite or virus in culture; type: cell-based, Staphylococcus aureus
Outline: (§1)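 Peptides 128→2 μg/mL, 2-fold series; inoculum ~5 × 10^5 CFU/mL from overnight culture (OD600 0.01, mixed 1:1). MHB non-cation-adjusted for bacteria, RPMI 1640 + 2% glucose for fungi. 37 °C, 20 h, OD600. MIC50/MIC90 at 50%/90% inhibition; n ≥ 3.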

C. auris TDG 1912 = test: microbe, parasite or virus in culture; type: cell-based, Candida auris
Outline: as §1

human erythrocytes = test: In vitro hemolytic activity; type: cell-based; conditions: 1 h
Procedure: Potential erythrocyte hemolysis was tested by incubating serial dilutions of the AMPs in PBS with freshly collected erythrocytes at a ratio of 1:1 in 96-well polypropylene V-shape plates for 1 h at 37 °C. Control wells were treated with 0.1% Triton-X-100 to ensure complete lysis or PBS-only to represent no lysis. The erythrocytes were collected by centrifugation and the OD550 of the supernatant was measured using a plate reader. The percentage hemolysis was calculated as [drawing 1] 1 where Apeptide is the absorbance value of erythrocytes exposed to a known peptide concentration, Agrowth control is the absorbance of erythrocytes exposed to 0.1% Triton-X-100 and Ablank is the absorbance of erythrocytes exposed to the PBS. The concentrations at which a peptide caused 10% (HC10) and 50% (HC50) hemolysis was determined from the dose response curves.

A. baumannii ATCC 17978 = test: microbe, parasite or virus in culture; type: cell-based, Acinetobacter baumannii
Outline: as §1

K. pneumoniae M6 = test: microbe, parasite or virus in culture; type: cell-based, Klebsiella pneumoniae
Outline: as §1

E. coli NCTC 12923 = test: microbe, parasite or virus in culture; type: cell-based, Escherichia coli
Outline: as §1

E. coli LEC001 = test: microbe, parasite or virus in culture; type: cell-based, Escherichia coli
Outline: as §1

[2] = system: C. parapsilosis NCPF 3209; test: microbe, parasite or virus in culture; type: cell-based
Outline: as §1

C. tropicalis NCPF 8760 = test: microbe, parasite or virus in culture; type: cell-based
Outline: as §1

C. glabrata NCPF 8018 = test: microbe, parasite or virus in culture; type: cell-based
Outline: as §1

C. albicans NCPF 3281 = test: microbe, parasite or virus in culture; type: cell-based
Outline: as §1

C. krusei NCPF 3876 = test: microbe, parasite or virus in culture; type: cell-based
Outline: as §1

[3] = system: S. aureus (MRSA) NCTC 13616; test: microbe, parasite or virus in culture; type: cell-based, Staphylococcus aureus
Outline: as §1

S. aureus (MRSA) USA300 = test: microbe, parasite or virus in culture; type: cell-based, Staphylococcus aureus
Outline: as §1

A. baumannii AYE = test: microbe, parasite or virus in culture; type: cell-based, Acinetobacter baumannii
Outline: as §1

K. pneumoniae NCTC 13368 = test: microbe, parasite or virus in culture; type: cell-based, Klebsiella pneumoniae
Outline: as §1

P. aeruginosa NCTC 13437 = test: microbe, parasite or virus in culture; type: cell-based, Pseudomonas aeruginosa
Outline: as §1

S. aureus (MRSA) 1199B = test: microbe, parasite or virus in culture; type: cell-based, Staphylococcus aureus; conditions: S. aureus (MRSA) 1199B (R); shown in µM
Outline: as §1

P. aeruginosa PAO1 = test: microbe, parasite or virus in culture; type: cell-based, Pseudomonas aeruginosa; conditions: P. aeruginosa PAO1 (S); shown in µM
Outline: as §1

[4] = human erythrocytes in PBS, 37 °C, OD550, from dose response curves
[5] = C. parapsilosis NCPF 3209, shown in µM
[6] = C. tropicalis NCPF 8760, shown in µM
[7] = C. glabrata NCPF 8018, shown in µM
[8] = C. albicans NCPF 3281, shown in µM
[9] = C. krusei NCPF 3876, shown in µM

## CC[C@H](C)[C@H](NC(=O)[C@H](C)NC(=O)[C@H](Cc1c[nH]cn1)NC(=O)[C@@H]1CCCN1C(=O)[C@@H](NC(=O)[C@H](CC(C)C)NC(=O)[C@H](CO)NC(=O)[C@H](Cc1ccccc1)NC(=O)[C@H](CC(C)C)NC(=O)[C@@H](N)Cc1ccccc1)[C@@H](C)CC)C(=O)NCC(=O)NCC(=O)N[C@@H](CC(C)C)C(=O)N[C@H](C(=O)N[C@@H](CO)C(=O)N[C@@H](C)C(=O)N[C@@H](Cc1ccccc1)C(=O)N[C@@H](CCCCN)C(=O)O)[C@@H](C)CC [AamAP1]
HaCat cell line
  % HaCat cell death at initial screening (256μg/mL) ± SD: 44.3 ±20.2%

## CSCC[C@H](NC(=O)[C@H](CCSC)NC(=O)[C@H](CCCCN)NC(=O)CNC(=O)[C@@H](NC(=O)[C@@H](NC(=O)[C@H](CCCCN)NC(=O)[C@H](CC(C)C)NC(=O)CNC(=O)[C@H](Cc1ccccc1)NC(=O)[C@H](CCCCN)NC(=O)[C@H](Cc1ccccc1)NC(=O)[C@H](C)NC(=O)[C@H](CCCCN)NC(=O)CNC(=O)[C@H](CC(C)C)NC(=O)[C@H](CC(C)C)NC(=O)[C@H](CO)NC(=O)CNC(=O)[C@H](CC(C)C)NC(=O)CN)[C@@H](C)O)C(C)C)C(=O)NCC(=O)NCC(=O)N[C@@H](C)C(=O)N1CCC[C@H]1C(=O)N[C@@H](CCCNC(=N)N)C(=O)N[C@@H](CCC(=O)O)C(=O)N[C@@H](CCC(N)=O)C(=O)O [CPF-MW1] (H-GLGSLLGKAFKFGLKTVGKMMGGAPREQ-OH)
[1]; ATCC 9144, 20 h
  Modal MIC: 1.4 µM
C. auris TDG 1912; TDG 1912, 20 h
  Modal MIC50: > 43.1 µM
  Modal MIC90: > 43.1 µM
Human erythrocytes; [4]
  HC10 (concentration causing 10% hemolysis): 214 µg/mL
Human erythrocytes; red cells of human, 256 μg/mL
  % hemolysis: more than 10%
A. baumannii ATCC 17978; ATCC 17978, 20 h
  Modal MIC: 1.4 µM
K. pneumoniae M6; M6, 20 h
  Modal MIC: 5.4 µM
E. coli NCTC 12923; NCTC 12923, 20 h
  Modal MIC: 2.7 µM
E. coli LEC001; LEC001, 20 h
  Modal MIC: 2.7 µM
[2]; NCPF 3209, 20 h
  Modal MIC50: > 43.1 µM
  Modal MIC90: > 43.1 µM
C. tropicalis NCPF 8760; NCPF 8760, 20 h
  Modal MIC50: 21.6 µM
  Modal MIC90: 21.6 µM
C. glabrata NCPF 8018; NCPF 8018, 20 h
  Modal MIC50: > 43.1 µM
  Modal MIC90: > 43.1 µM
C. albicans NCPF 3281; NCPF 3281, 20 h
  Modal MIC50: > 43.1 µM
  Modal MIC90: > 43.1 µM
C. krusei NCPF 3876; NCPF 3876, 20 h
  Modal MIC50: 10.8 µM
  Modal MIC90: 10.8 µM

## CC[C@H](C)[C@H](NC(=O)[C@H](CCCCN)NC(=O)[C@H](CC(C)C)NC(=O)[C@H](C)NC(=O)[C@H](C)NC(=O)[C@H](CCCCN)NC(=O)[C@H](CC(C)C)NC(=O)[C@H](C)NC(=O)[C@H](CCCCN)NC(=O)CNC(=O)[C@H](CC(C)C)NC(=O)[C@H](Cc1ccccc1)NC(=O)[C@H](CO)NC(=O)CNC(=O)[C@H](Cc1ccccc1)NC(=O)CN)C(=O)NCC(=O)N[C@@H](C)C(=O)N[C@@H](CC(N)=O)C(=O)N[C@H](C(=O)N[C@@H](CC(C)C)C(=O)NCC(=O)NCC(=O)N[C@@H](C)C(=O)N1CCC[C@H]1C(=O)N[C@@H](CCC(N)=O)C(=O)N[C@@H](CCC(N)=O)C(=O)O)C(C)C [CPF-P3] (H-GFGSFLGKALKAALKIGANVLGGAPQQ-OH)
[3]; NCTC 13616, 20 h
  Modal MIC: 1.5 µM
S. aureus (MRSA) USA300; USA300, 20 h
  Modal MIC: 2.9 µM
[1]; ATCC 9144, 20 h
  Modal MIC: 1.5 µM
HaCat cell line
  % HaCat cell death at initial screening (256μg/mL) ± SD: 39.9 ±12.3% and 39.9%
C. auris TDG 1912; TDG 1912, 20 h
  Modal MIC50: > 47 µM
  Modal MIC90: > 47 µM
A. baumannii AYE; AYE, 20 h
  Modal MIC: 2.9 µM
A. baumannii ATCC 17978; ATCC 17978, 20 h
  Modal MIC: 1.5 µM
K. pneumoniae NCTC 13368; NCTC 13368, 20 h
  Modal MIC: 11.8 µM
K. pneumoniae M6; M6, 20 h
  Modal MIC: 11.8 µM
E. coli NCTC 12923; NCTC 12923, 20 h
  Modal MIC: 2.9 µM
E. coli LEC001; LEC001, 20 h
  Modal MIC: 2.9 µM
P. aeruginosa NCTC 13437; NCTC 13437, 20 h
  Modal MIC: 23.5 µM
[2]; NCPF 3209, 20 h
  Modal MIC50: > 47 µM
  Modal MIC90: > 47 µM
C. tropicalis NCPF 8760; NCPF 8760, 20 h
  Modal MIC50: 2.9 µM
  Modal MIC90: 5.8 µM
C. glabrata NCPF 8018; NCPF 8018, 20 h
  Modal MIC50: > 47 µM
  Modal MIC90: > 47 µM
C. albicans NCPF 3281; NCPF 3281, 20 h
  Modal MIC50: > 47 µM
  Modal MIC90: > 47 µM
C. krusei NCPF 3876; NCPF 3876, 20 h
  Modal MIC50: 23.5 µM
  Modal MIC90: 23.5 µM

## CC[C@H](C)[C@H](NC(=O)[C@H](Cc1c[nH]c2ccccc12)NC(=O)[C@H](CC(=O)O)NC(=O)[C@H](Cc1c[nH]c2ccccc12)NC(=O)[C@@H](NC(=O)[C@H](CCCCN)NC(=O)CN)C(C)C)C(=O)N[C@@H](CCCCN)C(=O)N[C@@H](CO)C(=O)N[C@H](C(=O)N[C@@H](C)C(=O)N[C@@H](CCCCN)C(=O)N[C@@H](CCCCN)C(=O)N[C@@H](CC(C)C)C(=O)N[C@@H](Cc1c[nH]c2ccccc12)C(=O)N[C@@H](CC(N)=O)C(N)=O)[C@@H](C)O [Opis16a] (H-GKVWDWIKSTAKKLWN-NH2)
S. aureus (MRSA) 1199B
  Modal MIC: 2 µM
[3]; S. aureus (MRSA) NCTC 13616 (R), shown in µM
  Modal MIC: 2 µM
S. aureus (MRSA) USA300; S. aureus (MRSA) USA300 (R), shown in µM
  Modal MIC: 4 µM
[1]; S. aureus (MSSA) ATCC 9144 (S), shown in µM
  Modal MIC: 1 µM
C. auris TDG 1912; C. auris TDG 1912, 50% growth inhibition, RPMI 1640 + 2% glucose, 37 °C, 20 h, OD600
  Modal MIC50: > 128 µg/mL
C. auris TDG 1912; C. auris TDG 1912, 90% growth inhibition, RPMI 1640 + 2% glucose, 37 °C, 20 h, OD600
  Modal MIC90: > 128 µg/mL
C. auris TDG 1912; C. auris TDG 1912, shown in µM
  Modal MIC50: > 64.7 µM
  Modal MIC90: > 64.7 µM
Human erythrocytes; [4]
  HC10 (concentration causing 10% hemolysis): 155 µg/mL
  HC50 (concentration causing 50% hemolysis): > 256 µg/mL
A. baumannii AYE; A. baumannii AYE (R), shown in µM
  Modal MIC: 1 µM
A. baumannii ATCC 17978; A. baumannii ATCC 17978 (S), shown in µM
  Modal MIC: 1 µM
K. pneumoniae NCTC 13368; K. pneumoniae NCTC 13368 (R), shown in µM
  Modal MIC: 8.1 µM
K. pneumoniae M6; K. pneumoniae M6 (S), shown in µM
  Modal MIC: 4 µM
E. coli NCTC 12923; E. coli NCTC 12923 (S), shown in µM
  Modal MIC: 2 µM
E. coli LEC001; E. coli LEC001 (R), shown in µM
  Modal MIC: 2 µM
P. aeruginosa PAO1
  Modal MIC: 64.7 µM
P. aeruginosa NCTC 13437; P. aeruginosa NCTC 13437 (R), shown in µM
  Modal MIC: 16.2 µM
[2]; [5]
  Modal MIC50: 32.4 µM
  Modal MIC90: 64.7 µM
C. tropicalis NCPF 8760; [6]
  Modal MIC50: 4 µM
  Modal MIC90: 4 µM
C. glabrata NCPF 8018; [7]
  Modal MIC50: 64.7 µM
  Modal MIC90: 64.7 µM
C. albicans NCPF 3281; [8]
  Modal MIC50: 32.4 µM
  Modal MIC90: 64.7 µM
C. krusei NCPF 3876; [9]
  Modal MIC50: 16.2 µM
  Modal MIC90: 16.2 µM

Source: paper PMC11191095, “QSAR Reveals Decreased Lipophilicity of Polar Residues Determines the Selectivity of Antimicrobial Peptide Activity” (ACS Omega, 2024)
